Results on one compound are retold here after patent US6911454B1, “Method for potentiating primary drugs in treating multidrug resistant disease” (priority 1989, dated 2005).

The test system of one assay is DX20 tumor. Description: tumor measurements in nude mice bearing the DX20 tumor. The class given is in vivo. Further details: unit not given here. As for the experimental part:
(See FIG. 6). Tumor size was calculated using the formula (4 Pi/3) X*Y*2Z.
The study was done with 3-4 week old male balb-C nude mice. The animals were injected with DX20 1×10^7 cells.

Assay [1] deals with resistant (K562-R7) cancel cells. Kind of assay: doxorubicin fluorescence test by flow cytometry. Format: cell-based. Particulars: FIG. 12; doxorubicin used alone.
In the next assay the test system is DX20 cancer cells. Description: modified MTT assay, drug sensitivity of DX20 cells. Particulars: Homo sapiens, DX20 cells. Format: cell-based, human. The source says: The MES-SA/DX20 cell line was established according to the development methods of Sikic et al., Resistance to Antineoplastic Drugs, Chap. 3, CRC Press, Ed. David Kessel, pp. 37-47 (1989). In vitro drug sensitivity testing consisted of two assay models, the modified MTT assay (Mossman, J. Immunolog. Methods, Vol. 65, pp. 55-63, 1983) and the colonogenic assay. In addition to this, the combinations were investigated in vivo in nude mice bearing the DX20 cell line. The MTT assay was chosen because of its practical advantages in large-scale screening. The assay involved cellular conversion of tetrazolium salt to a colored formazan serving as a measurement of cell viability.
In a given experiment, culture media, 50 microliters, containing 8,000-25,000 cells, depending on the proliferation rate of the cell line, was pipetted into each well of several 96-well microtiter plates. The cells were allowed to attach overnight. […] The cytotoxic drug, also at a concentration below that previously established as an IC50, was then added at decreasing concentrations by 25% to several half plate sections. The cells were allowed to grown for 72 hours. 100 microliters of media was then removed and 25 microliters of 5 mg/ml MTT (Sigma, St. Louis, Mo.) in phosphate buffered saline was added to each well. The plates were kept in an incubator at 37° C. and 5% CO2. After 2-3 hours of incubation, the extraction buffer containing 20% w/v SDS and 50% DMF was added and the plates again incubated overnight. The plates were read at a test wavelength of 570 nm on a multiwell spectrophotometer (Model MR 700, Dynatech Laboratories, Alexandria, Va.). Each drug combination was tested in triplicate. Percent survival was defined as percent of optical density (OD) of the drug-treated wells to that of the control detected by the spectrophotometer.
The in vitro drug sensitivity testing of ethyl fangchinoline consisted of two assay models, the modified MTT (Mossman 1983) and a colony formation assay in which a direct measure was taken by quantitation of colony formation. The MTT assay was chosen because of its practical advantages in large scale screening. The assay involves cellular conversion of tetrozolium salt to a colored formazan serving as a measurement of cell viability.
Two human cell lines were chosen as the primary targets of study in reversing multiple-drug resistance. The MES-SA, a sarcoma, and its resistant subline, DX-20, were kindly donated by Dr. B. Sikic (U of Stanford, Stanford, Calif.). The A2780, an ovarian cancer, and its resistant subline, A2780-ad10, were provided by Roswell Park Memorial Inst. (Buffalo, N.Y.).
Culture media, 50 ul containing 8,000 to 25,000 cells depending on the proliferation rate of the line, was pipetted into each of 96 wells in a flat bottom tissue plate. The cells were incubated overnight to allow adherence. One hundred ul of ethyl fangchinoline, at a concentration below that previously established as an independent IC50, was added to each experimental well. […] The plates were then incubated for 72 hours before MTT was added and the analysis of O.D. values interpreted by a multi-plate scanner (MR700, Dynatech).

Assay [2] has as its system multidrug resistant human cancer (DX20). Format: in vivo, mice. Conditions: d-tetrandrine 0.5, 1, 1.5 mg injections; doxorubicin 5.5 mg per kg; about one month. As for the experimental part: It is only important that they be administered sufficiently close together that the cancer is exposed to both simultaneously. For example, nude mice infected with a multidrug resistant human cancer were given 0.5 mg, 1 mg and 1.5 mg respectively in three separate injections, 72 hours apart.

[3] abbreviates: Day 7 Prior to Treatment (baseline).
The mark [4] stands for this setting: Day 24 After Treatment, d-tetrandrine days 6, 8, 10, doxorubicin 5.5 mg/kg day 12.

Where two headings read alike, the source gives them in different places.

On to `COc1cccc2c1C(=O)c1c(O)c3c(c(O)c1C2=O)C[C@@](O)(C(=O)CO)C[C@@H]3O[C@H]1C[C@H](N)[C@H](O)[C@H](C)O1` [doxorubicin], for which the “Tumor Measurements Depth” value in the assay on DX20 tumor (setting [3]) amounted to 1.25; in the assay with DX20 tumor (setting [4]), 21.50. The figures for the “Tumor Measurements Length” value with DX20 tumor (setting [3]) and in the assay with DX20 tumor (setting [4]) were 3.50 and 24.50, respectively. Further, the results for the “Tumor Measurements Width” value with DX20 tumor (setting [3]) and in the assay on DX20 tumor (setting [4]) were 3.87 and 19.10, respectively. In addition, in assay [1], the “doxorubicin concentration (fluorescence) in resistant versus sensitive cells” value is given as “lower concentration of doxorubicin than does a sensitive cancer”. The IC50 in the assay with DX20 cancer cells (d-tetrandrine 2 × 10^−7 molar, read-out: IC50 doxorubicin in d-tetrandrine) was 660 nM; with DX20 cancer cells (d-tetrandrine 4 × 10^−7 molar, read-out: IC50 doxorubicin in d-tetrandrine), 360 nM; with DX20 cancer cells (ethyl fangchinoline 1 × 10^−6 molar, read-out: IC50 doxorubicin in ethyl fangchinoline), 480 nM; with DX20 cancer cells (ethyl fangchinoline 2 × 10^−7 molar, read-out: IC50 doxorubicin in ethyl fangchinoline) it was 470 nM; in the assay on DX20 cancer cells (ethyl fangchinoline 4 × 10^−7 molar, read-out: IC50 doxorubicin in ethyl fangchinoline), 160 nM; in the assay on DX20 cancer cells (single agent, read-out: IC50 alone), 5400 nM. In assay [2], the tumor outcome was “very large tumors which were unabated”.
